{"source": "PubChem BioAssay AID270", "about": "(DTP/NCI, 2004)", "tested_on": "BDF1 mice, s.c. Lewis lung carcinoma, T/C %", "test": "NCI In Vivo Anticancer Drug Screen. Data for tumor model Lewis Lung Carcinoma (subcutaneous) in B6D2F1 (BDF1) mice", "summary_of_the_method": "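Tumor-bearing mice were treated with test compound, and either survival or tumor size was recorded. Values are the treated-group measurement divided by that of the vehicle-treated control group.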", "key": {"[1]": {"details": "endpoint: mean tumor weight, dose: 1.0 mg/kg/injection, schedule: Q01DX011 (ip), vehicle: carboxymethylcellulose (CMC), higher = larger tumour"}, "[2]": {"details": "endpoint: median survival time, dose: 4.0 mg/kg/injection, schedule: Q01DX009 (ip), vehicle: saline, higher = longer survival"}, "[3]": {"details": "endpoint: median survival time, dose: 8.0 mg/kg/injection, schedule: Q01DX009 (ip), vehicle: saline, higher = longer survival"}}, "note": "Results filed as inconclusive are left out.", "data": [{"compound": "CN1CCCC1c1cccnc1", "note": "(stereo unspecified)", "values": [{"measurement": "T/C", "setting": "[1]", "result": "62 % of control"}, {"measurement": "T/C", "setting": "endpoint: mean tumor weight, dose: 2.0 mg/kg/injection, schedule: Q01DX011 (ip), vehicle: carboxymethylcellulose (CMC), higher = larger tumour", "result": "75 % of control"}, {"measurement": "T/C", "setting": "endpoint: mean tumor weight, dose: 4.0 mg/kg/injection, schedule: Q01DX011 (ip), vehicle: carboxymethylcellulose (CMC), higher = larger tumour", "result": "72 % of control"}]}, {"compound": "C1CC[N-]CC1.C1CC[N-]CC1.C1CC[N-]CC1.[Cl][Rh]([Cl])[Cl]", "values": [{"measurement": "T/C", "setting": "[2]", "result": "96 % of control"}, {"measurement": "T/C", "setting": "[3]", "result": "93 % of control"}, {"measurement": "T/C", "setting": "endpoint: median survival time, dose: 16.0 mg/kg/injection, schedule: Q01DX009 (ip), vehicle: saline, higher = longer survival", "result": "103 % of control"}, {"measurement": "T/C", "setting": "endpoint: median survival time, dose: 32.0 mg/kg/injection, schedule: Q01DX009 (ip), vehicle: saline, higher = longer survival", "result": "98 % of control"}, {"measurement": "T/C", "setting": "endpoint: median survival time, dose: 64.0 mg/kg/injection, schedule: Q01DX009 (ip), vehicle: saline, higher = longer survival", "result": "92 % of control"}]}, {"compound": "CCCNC(=NC)c1ccc(NC(=O)c2ccc(C(=O)Nc3ccc(C(=NC)NCCC)cc3)cc2)cc1", "values": [{"measurement": "T/C", "setting": "endpoint: mean tumor weight, dose: 2.5 mg/kg/injection, schedule: Q01DX011 (ip), vehicle: other, higher = larger tumour", "result": "124 % of control"}, {"measurement": "T/C", "setting": "endpoint: mean tumor weight, dose: 5.0 mg/kg/injection, schedule: Q01DX011 (ip), vehicle: other, higher = larger tumour", "result": "56 % of control"}]}, {"compound": "O=C1CC(c2ccc(O)cc2)CC(=O)C1C(C1CC=CCC1)N(CCCl)CCCl", "note": "(stereo unspecified)", "values": [{"measurement": "T/C", "setting": "endpoint: median survival time, dose: 25.0 mg/kg/injection, schedule: Q01DX009 (ip), vehicle: Klucel (hydroxypropylcellulose) (HPC), higher = longer survival", "result": "122 % of control"}, {"measurement": "T/C", "setting": "endpoint: median survival time, dose: 50.0 mg/kg/injection, schedule: Q01DX009 (ip), vehicle: Klucel (hydroxypropylcellulose) (HPC), higher = longer survival", "result": "123 % of control"}, {"measurement": "T/C", "setting": "endpoint: median survival time, dose: 100.0 mg/kg/injection, schedule: Q01DX009 (ip), vehicle: Klucel (hydroxypropylcellulose) (HPC), higher = longer survival", "result": "115 % of control"}, {"measurement": "T/C", "setting": "endpoint: median survival time, dose: 200.0 mg/kg/injection, schedule: Q01DX009 (ip), vehicle: Klucel (hydroxypropylcellulose) (HPC), higher = longer survival", "result": "111 % of control"}, {"measurement": "T/C", "setting": "endpoint: median survival time, dose: 400.0 mg/kg/injection, schedule: Q01DX009 (ip), vehicle: Klucel (hydroxypropylcellulose) (HPC), higher = longer survival", "result": "98 % of control"}]}, {"compound": "CNC(=O)N(C)c1cc(N(C)C)nc(OC)n1", "values": [{"measurement": "T/C", "setting": "endpoint: median survival time, dose: 5.0 mg/kg/injection, schedule: Q01DX009 (ip), vehicle: Klucel (hydroxypropylcellulose) (HPC), higher = longer survival", "result": "98 % of control"}, {"measurement": "T/C", "setting": "endpoint: median survival time, dose: 10.0 mg/kg/injection, schedule: Q01DX009 (ip), vehicle: Klucel (hydroxypropylcellulose) (HPC), higher = longer survival", "result": "115 % of control"}]}, {"compound": "CC1CN1c1nc(N2CC2C)nc(N2CC2C)n1", "note": "(stereo unspecified)", "values": [{"measurement": "T/C", "setting": "endpoint: median survival time, dose: 1.0 mg/kg/injection, schedule: Q01DX009 (ip), vehicle: saline, higher = longer survival", "result": "106 % of control"}, {"measurement": "T/C", "setting": "endpoint: median survival time, dose: 2.0 mg/kg/injection, schedule: Q01DX009 (ip), vehicle: saline, higher = longer survival", "result": "86 % of control"}, {"measurement": "T/C", "setting": "[2]", "result": "105 % of control"}, {"measurement": "T/C", "setting": "[3]", "result": "105 % of control"}]}, {"compound": "CN(C)C(=O)N(CCCl)N=O", "values": [{"measurement": "T/C", "setting": "endpoint: median survival time, dose: 6.25 mg/kg/injection, schedule: Q01DX001 (ip), vehicle: water, higher = longer survival", "result": "102 % of control"}, {"measurement": "T/C", "setting": "endpoint: median survival time, dose: 12.5 mg/kg/injection, schedule: Q01DX001 (ip), vehicle: water, higher = longer survival", "result": "112 % of control"}]}, {"compound": "CC1=C2C(=CC(C)(C)[C@@H]2O)C(=O)[C@](C)(O)C12CC2", "values": [{"measurement": "T/C", "setting": "endpoint: mean tumor weight, dose: 0.12 mg/kg/injection, schedule: Q01DX011 (ip), vehicle: saline, higher = larger tumour", "result": "61 % of control"}, {"measurement": "T/C", "setting": "endpoint: mean tumor weight, dose: 0.18 mg/kg/injection, schedule: Q01DX011 (ip), vehicle: saline, higher = larger tumour", "result": "92 % of control"}, {"measurement": "T/C", "setting": "endpoint: mean tumor weight, dose: 0.26 mg/kg/injection, schedule: Q01DX011 (ip), vehicle: saline, higher = larger tumour", "result": "73 % of control"}, {"measurement": "T/C", "setting": "endpoint: mean tumor weight, dose: 0.4 mg/kg/injection, schedule: Q01DX011 (ip), vehicle: saline, higher = larger tumour", "result": "76 % of control"}, {"measurement": "T/C", "setting": "endpoint: mean tumor weight, dose: 0.6 mg/kg/injection, schedule: Q01DX011 (ip), vehicle: saline, higher = larger tumour", "result": "19 % of control"}]}, {"compound": "C[C@]12CC[C@H](OC3OC(CO)C(O)C(O)C3O)C[C@H]1CC[C@@H]1[C@@H]2CC[C@]2(C)[C@@H](C3=CCOC3=O)CC[C@]12O", "note": "(stereo partly specified)", "values": [{"measurement": "T/C", "setting": "endpoint: mean tumor weight, dose: 0.25 mg/kg/injection, schedule: Q01DX011 (ip), vehicle: carboxymethylcellulose (CMC), higher = larger tumour", "result": "33 % of control"}, {"measurement": "T/C", "setting": "endpoint: mean tumor weight, dose: 0.25 mg/kg/injection, schedule: Q01DX011 (ip), vehicle: saline, higher = larger tumour", "result": "41 % of control"}, {"measurement": "T/C", "setting": "endpoint: mean tumor weight, dose: 0.5 mg/kg/injection, schedule: Q01DX011 (ip), vehicle: carboxymethylcellulose (CMC), higher = larger tumour", "result": "47 % of control"}, {"measurement": "T/C", "setting": "endpoint: mean tumor weight, dose: 0.5 mg/kg/injection, schedule: Q01DX011 (ip), vehicle: saline, higher = larger tumour", "result": "16 % of control"}, {"measurement": "T/C", "setting": "[1]", "result": "14 % of control"}]}, {"compound": "O", "values": [{"measurement": "T/C", "setting": "endpoint: median survival time, dose: 100.0 mg/kg/injection, schedule: Q02DX009 (ip), vehicle: saline, higher = longer survival", "result": "91 % of control"}, {"measurement": "T/C", "setting": "endpoint: median survival time, dose: 200.0 mg/kg/injection, schedule: Q02DX009 (ip), vehicle: saline, higher = longer survival", "result": "110 % of control"}, {"measurement": "T/C", "setting": "endpoint: median survival time, dose: 600.0 mg/kg/injection, schedule: Q02DX009 (ip), vehicle: saline, higher = longer survival", "result": "94 % of control"}]}]}
